Activity calls are given as the source filed them.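 Rule for the calls: active = AC50, the dose giving half-maximal effect, exceeds a fixed cutoff for a compound that rescues yeast growth under heat; inactive = the rest, inconclusive results apart.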 Bounds are passed on as bounds.

The experiment has as its system S. cerevisiae Burl-1 ts mutant growth, BacTiter-Glo, 38.5C 24 h. Description: growth induction of Burl-1 ts yeast mutant, dose response, counter-screen for SUMOylation pathway inhibitor project, whole organism, S. cerevisiae, luminescence (AID 463199). Background: The purpose of a counterscreen is to sort out artefacts and off-target activity.
Turning to `COc1ccc(C(=O)NCC(=O)Nc2ccccc2)cc1OC`, the AC50 is > 42 µM (inactive).
As to `O=C1NC(=O)C(=Cc2ccc(N3CCOCC3)cc2)C(=O)N1`, the AC50 is > 42 µM (inactive).
As for `CN(Cc1cccnc1)Cc1cn[nH]c1-c1ccc(-c2ccccc2)cc1`, the AC50 is > 42 µM (inactive).
On to `N#Cc1cccc(NC(=O)CSc2n[nH]c(=O)[nH]c2=O)c1`, for which the AC50 is > 42 µM (inactive).
With `Cc1ccc(NC(=O)COC(=O)c2csc3c2CCC(C)C3)cc1S(=O)(=O)N1CCCCC1` (configuration not stated), the AC50 is > 42 µM (inactive).
`CCCOC(=O)C1=C(C)NC2=C(C(=O)CCC2)C1c1cccs1` (configuration not stated): the AC50 is > 42 µM (inactive).
`CC(C)(C)NC(=S)NCc1cccnc1`: the AC50 is > 42 µM (inactive).
Consider `CCC(CC)C(=O)Nc1ccc(S(=O)(=O)Nc2nccs2)cc1`, for which the concentration at half-maximal activity (AC50) was 26 µM.
As for `CCOc1cc(/C=C2\NC(=O)NC2=O)ccc1OC(C)C(=O)O` (configuration not stated), the AC50 was > 42 µM (inactive).
As for `COC(=O)C(NC(C)=O)(Nc1nc2ccc(S(C)(=O)=O)cc2s1)C(F)(F)F` (configuration not stated), the AC50 was > 42 µM (inactive).
To `COc1ccc(-c2oc3ccc(-c4cc(OC)c(OC)c(OC)c4)cc3c2C(=O)c2ccc(OC)nc2)cc1` belongs > 42 µM (inactive).
For the compound `CC1CCN(Cc2nc3c(c(=O)n(C)c(=O)n3C)n2CCc2ccccc2)CC1`, the AC50 was > 42 µM (inactive).
To `COc1ccc([N+](=O)[O-])cc1NC(=O)C1CCCN1S(=O)(=O)c1cccs1` (configuration not stated) belongs > 42 µM (inactive).
As for `COc1ccc(CN(C)S(=O)(=O)c2nnc(NC(=O)c3ccc(C)cc3)s2)cc1OC`, the AC50 was > 42 µM (inactive).
As for `COc1ccc(/C=C/C(=O)NC(=S)Nc2ccccn2)cc1`, the AC50 is > 42 µM (inactive).
The figure for `CCOC(=O)N1CCN(c2cc3[nH]c(=S)[nH]c3cc2F)CC1` is > 42 µM (inactive); for `O=Cc1ccc(Oc2cccc(C(F)(F)F)c2)nc1` it is > 42 µM (inactive); for `CC1Cc2ccccc2N1C(=O)CNc1cccc(S(=O)(=O)N2CCCC2)c1` (configuration not stated) it is > 42 µM (inactive).
On to `COc1ccc(NC(=O)c2ccccc2NC(=O)NC2CCCCC2)cc1`, for which the AC50 is > 42 µM (inactive).
Turning to `Cc1cc(OCC(=O)NCC2CCC(C(=O)O)CC2)c2c(C)c(C)c(=O)oc2c1` (configuration not stated), the AC50 was > 42 µM (inactive).
For the compound `O=C1Nc2ccccc2/C1=C/c1ccc([N+](=O)[O-])cc1`, the AC50 is > 42 µM (inactive).
Take `O=C(Nc1cc(F)ccc1F)C1CCCO1` (configuration not stated): the AC50 is > 42 µM (inactive).
As to `Cc1ccc(/C(N)=N/OC(=O)/C=C/c2ccccc2)cc1`, the AC50 is > 42 µM (inactive).
The figure for `CCOC(=O)Cn1c(C)c(Br)c(=O)c2cccc(C)c21` is > 42 µM (inactive); for `CCCCOc1ccc(C(=O)Nc2ccc(N3CCN(C)CC3)cc2)cc1` it is > 42 µM (inactive).
For `Clc1ccccc1-c1ccc2ncnc(NCc3cccs3)c2c1`, the AC50 was > 42 µM (inactive).
In the case of `Cc1sc2ncn(C(C)C(=O)OC3CCCCC3)c(=O)c2c1C` (configuration not stated), the AC50 is > 42 µM (inactive).
Take `CN(C)CCNC(=O)c1scc2c1CCCC2`: the AC50 was > 42 µM (inactive).
As for `N=c1ncn(CC(O)CO)c2nc(N3CCOCC3)[nH]c12` (configuration not stated), the AC50 was > 42 µM (inactive).
To `Cn1c(CSc2nc3ccccc3s2)nnc1SCC(=O)NCCN1CCOCC1` belongs > 42 µM (inactive); to `COC(=O)[C@@]12CCCCN1[C@H](c1ccc(-c3ccc(C(C)=O)cc3)cc1)[C@@H]1C(=O)N(C)C(=O)[C@@H]12`, > 42 µM (inactive).
For `COc1ccc(N(C(=O)c2ccco2)C(C(=O)NC2CCCCC2)c2ccccc2)cc1` (configuration not stated), the AC50 is > 42 µM (inactive).
In the case of `CCOC(C(=O)OCCCN(CC)CC)(c1ccccc1)c1ccccc1`, the AC50 was > 42 µM (inactive).
As for `Cc1cccn2c(=O)c3cc(C(=O)NCCc4ccccc4)sc3nc12`, the AC50 is > 42 µM (inactive).
As to `CC(C)(C)c1ccc(C(=O)NCCC(=O)N2CCN(c3ncccn3)CC2)cc1`, the AC50 is > 42 µM (inactive).
Turning to `CC1CCN(C(=O)c2[nH]cnc2C(=O)NCC(=O)OCc2ccccc2)CC1`, the AC50 is > 42 µM (inactive).
For `COc1ccccc1CSc1ncc(-c2ccc([N+](=O)[O-])cc2)[nH]1`, the AC50 is > 42 µM (inactive).
As to `O=S(=O)(NCc1ccccc1)c1ccc(S(=O)(=O)N(Cc2ccccn2)Cc2ccco2)cc1`, the AC50 was 16.7 µM.
With `CCN1C(=NCC(C)C)N[C@@H](c2cccc(C(F)(F)F)c2)C(C(=O)OC)=C1C`, the AC50 is > 42 µM (inactive).
The figure for `CC1CN(CCCOc2ccc([N+](=O)[O-])cc2)CC(C)O1` (configuration not stated) is > 42 µM (inactive); for `C=CCNC(=O)NC(=O)COC(=O)CCCSc1nc2ccccc2[nH]1` it is > 42 µM (inactive); for `CCOC(=O)C1CCN(C(=O)c2sccc2Cl)CC1` it is > 42 µM (inactive).
In the case of `Cc1cccc(NC(=S)NC(=O)/C=C/c2ccco2)c1`, the AC50 was > 42 µM (inactive).
For `COc1ccc(NC(=O)c2ccc(S(=O)(=O)N(C)c3ccccc3)cc2)cn1`, the AC50 was > 42 µM (inactive).
As to `c1ccc(CCCc2nc(-c3cccnc3)no2)cc1`, the AC50 is > 42 µM (inactive).
On to `N/C(=N\OC(=O)CCC1CCCC1)c1ccc([N+](=O)[O-])cc1`, for which the AC50 is > 42 µM (inactive).
On to `Cc1cc(C)n(C(=O)c2ccccc2[N+](=O)[O-])n1`, for which the AC50 was > 42 µM (inactive).
The figure for `COc1ccc(OC)c(Cc2nnc(CCC(=O)NCc3ccsc3)o2)c1` is > 42 µM (inactive).
Turning to `COc1ccc(NC(=S)Nc2ccccc2OC)c(OC)c1`, the AC50 was > 42 µM (inactive).
Turning to `CC(CN1CCCCCC1)C(=O)NN` (configuration not stated), the AC50 is > 42 µM (inactive).
To `Cc1sc2nc(SCC(=O)NCCOCCO)n(C)c(=O)c2c1C` belongs > 42 µM (inactive).
The figure for `CN(CP(=O)(O)C(O)c1ccccc1)S(C)(=O)=O` (configuration not stated) is > 42 µM (inactive).
As to `Cn1c(SCC(=O)Nc2ccc(N3CCOCC3)c(Cl)c2)nnc1-c1ccccc1`, the AC50 was > 42 µM (inactive).
To `O=C(c1cc2ccccc2o1)N1CCN(C/C=C/c2ccccc2)CC1` belongs > 42 µM (inactive).
Consider `Nc1ccc(NC(=O)c2ccco2)c(Cl)c1`, for which the AC50 is > 42 µM (inactive).
Regarding `O=S1(=O)NC(c2ccccc2)CC(CC2CCCCC2)O1` (configuration not stated), the AC50 is > 42 µM (inactive).
As to `CN(C)c1ccc(/C=N\Nc2ccccn2)cc1`, the AC50 is > 42 µM (inactive).
Take `CN(C)c1ccc(C(=O)N2CCCC(CCC(=O)N3CCN(c4ccccn4)CC3)C2)cc1` (configuration not stated): the AC50 was > 42 µM (inactive).
`CN(Cc1ccc(C(C)(C)C)cc1)C(=O)c1ccc2c(=O)n3c(nc2c1)CCC3`: the AC50 is > 42 µM (inactive).
The figure for `O=C(OCc1nnc(-c2ccccc2)o1)c1ccc([N+](=O)[O-])o1` is > 42 µM (inactive).
Regarding `Cc1ccc2c(C)c(C(=O)N(C)C(C)c3ccncn3)oc2c1C` (configuration not stated), the AC50 is > 42 µM (inactive).
For `COc1ccc(N2CCN(C3CCCN(Cc4cccc(OC)c4)C3)CC2)cc1` (configuration not stated), the AC50 is > 42 µM (inactive).
Consider `COc1cccc(OC)c1C(=O)Nc1ccc2c(c1)N(S(=O)(=O)c1cccs1)CCC2`, for which the AC50 was > 42 µM (inactive).
Regarding `CCN(CC)S(=O)(=O)c1ccc(C(=O)NCCc2cc3c(OC)ccc(OC)c3[nH]c2=O)cc1`, the AC50 is > 42 µM (inactive).
On to `Cc1ccccc1NC(=O)COC(=O)C1C2CC3OC(=O)C1C3C2` (configuration not stated), for which the AC50 is > 42 µM (inactive).
As to `CC(C)C1=CC(=Nc2ccc(S(N)(=O)=O)cc2)C=C(C(C)C)C1=O`, the AC50 was > 42 µM (inactive).
As for `CCC(=O)c1c[nH]c(C(=O)NCCCn2ccnc2)c1`, the AC50 is > 42 µM (inactive).
With `CN(C)S(=O)(=O)c1cc(NC(=O)CSc2nn(-c3ccc(Cl)cc3)c(=S)s2)ccc1Cl`, the AC50 was > 42 µM (inactive).
To `COc1cc(C(=O)Nc2sc3c(c2C(=O)O)CCC(C)C3)cc(OC)c1OC` (configuration not stated) belongs > 42 µM (inactive).
Consider `COc1ccc(CCNC(=O)c2cc(-c3ccco3)on2)cc1OC`, for which the AC50 was > 42 µM (inactive).
Consider `O=C(COC(=O)[C@@H]1CC(O)CN1S(=O)(=O)c1ccccc1[N+](=O)[O-])Nc1ccc2ccccc2c1` (some centres not stated), for which the AC50 was > 42 µM (inactive).
As for `COCCn1c(SCc2ccc(Cl)cc2)nc2c1c(=O)[nH]c(=O)n2C`, the AC50 was > 42 µM (inactive).
Take `Cc1c(NC(=O)CN2C(=O)NC(C)(c3ccc(OC(F)F)cc3)C2=O)c(=O)n(-c2ccccc2)n1C` (configuration not stated): the AC50 was > 42 µM (inactive).
The figure for `CC(=O)N1N=C(N)SC12CCCC2` is > 42 µM (inactive).
The figure for `Cc1cc(C)c(NC(=O)Cn2c([N+](=O)[O-])cnc2C)c(C)c1` is > 42 µM (inactive); for `COc1ccc(C(=O)CC(=O)C(=O)Nc2ccc(C)c(Cl)c2)cc1` it is > 42 µM (inactive); for `CN(C)S(=O)(=O)c1ccc(C(=O)/C=C/c2cccnc2)cc1` it is > 42 µM (inactive).
As for `COc1ccc(C(=O)O/N=C(\N)c2ccccc2)cc1OC`, the AC50 is > 42 µM (inactive).
As for `Cc1ccc(S(=O)(=O)Cc2ccc(C(=O)N3CCN(c4ccccn4)CC3)o2)cc1`, the AC50 was > 42 µM (inactive).
With `O=C(Cc1ccc(Cl)cc1)NC(=S)Nc1ccccc1N1CCOCC1`, the AC50 was > 42 µM (inactive).
With `Clc1ccccc1C(c1ccccc1)(c1ccccc1)n1ccnc1`, the AC50 was > 42 µM (inactive).
As for `COc1ccc(Cl)cc1NC(=O)C1CCCN(c2cc(C)nc3ncnn23)C1` (configuration not stated), the AC50 was > 42 µM (inactive).
Consider `Cc1cc(C(=O)COc2cccc3cccnc23)c(C)n1C`, for which the AC50 was > 42 µM (inactive).
Take `C/C=C\C=C/C(=O)Nc1cccc(C2=NOC3(C2)C[C@@H](C(N)=O)N(C(=O)c2ccccc2)C3)c1` (some centres not stated): the AC50 is > 42 µM (inactive).
On to `COc1ccc(NC(=O)Nc2ccccc2C(=O)N2CCCC2)cc1`, for which the AC50 is 1.83 µM.
On to `CC(=O)Nc1cccc(C(=O)OCC(=O)NCc2ccc(F)cc2)c1`, for which the AC50 is > 42 µM (inactive).
The figure for `CC(=O)c1ccc(C(=O)N2CCCC(N3CCN(c4ccc(F)cc4)CC3)C2)s1` (configuration not stated) is > 42 µM (inactive).

As usually defined, the AC50 is the midpoint of the concentration-response curve, whichever way the signal moves.

These data come from PubChem BioAssay AID463199 (Broad Institute, 2010).
